In ChEMBL document CHEMBL1201862, “PubChem BioAssay data set” (2004):
Activity calls are given as the source filed them.

How the values were obtained:
[1] = biological target: Disintegrin and metalloproteinase domain-containing protein 17 (Homo sapiens, UniProt P78536); assay: ADAM17 protease inhibitors, dose response, counter-screen for ADAM10 exosite inhibitor project, biochemical, quenched FRET substrate (AID 743253)
[2] = ADAM10 inhibitors, peptide cleavage, dose response, biochemical, QFRET (AID 743254);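 also: ADAM10 enzyme with the DM2 quenched FRET peptide as substrate; EDANS fluorescence gain as the protease cuts the substrate; inhibitor potency against ADAM10 proteolytic activity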
[3] = biological target: T1, DNA repair protein RAD52 homolog (Homo sapiens, UniProt P43351); type: functional, biochemical
T1 sequence (P43351 whole entry): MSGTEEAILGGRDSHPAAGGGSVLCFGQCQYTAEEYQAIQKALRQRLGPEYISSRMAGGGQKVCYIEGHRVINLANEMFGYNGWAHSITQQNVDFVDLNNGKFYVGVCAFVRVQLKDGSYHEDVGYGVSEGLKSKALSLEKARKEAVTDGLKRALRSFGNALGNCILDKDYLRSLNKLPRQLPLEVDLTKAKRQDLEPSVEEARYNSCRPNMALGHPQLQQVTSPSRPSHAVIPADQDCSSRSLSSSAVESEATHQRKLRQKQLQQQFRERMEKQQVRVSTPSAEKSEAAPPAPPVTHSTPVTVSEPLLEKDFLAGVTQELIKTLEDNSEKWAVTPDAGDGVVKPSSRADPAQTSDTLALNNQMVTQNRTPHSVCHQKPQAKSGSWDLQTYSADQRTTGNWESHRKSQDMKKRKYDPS

[4] = A Cell Based Secondary Assay To Explore Cytotoxicity of Compounds that Sensitize Mycobacterium Tuberculosis to Beta-Lactam Antibiotics.; type: functional
[5] = HepG2 cell cytotoxicity, dose response, cytotoxicity control, cherry-picked samples (AID 1159577); type: functional, cell-based
[6] = P. falciparum Dd2 growth inhibitors, dose response, SYBR Green, cherry-picked samples (AID 1159567); type: functional, cell-based
[7] = biological target: T2, Lytic switch protein BZLF1 (Epstein-Barr virus (strain B95-8) (HHV-4) (Human herpesvirus 4), UniProt P03206); assay: EBV ZTA inhibitors, dose response, counter-screen for EBNA-1 inhibitor project, biochemical, fluorescence polarization, Epstein-Barr virus, 1536-well (AID 2377); design: species or system human gammaherpesvirus 4;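 also: fluorescence polarization of Cy5-labelled ZRE DNA probe bound by purified Zta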
T2 sequence (P03206 whole entry): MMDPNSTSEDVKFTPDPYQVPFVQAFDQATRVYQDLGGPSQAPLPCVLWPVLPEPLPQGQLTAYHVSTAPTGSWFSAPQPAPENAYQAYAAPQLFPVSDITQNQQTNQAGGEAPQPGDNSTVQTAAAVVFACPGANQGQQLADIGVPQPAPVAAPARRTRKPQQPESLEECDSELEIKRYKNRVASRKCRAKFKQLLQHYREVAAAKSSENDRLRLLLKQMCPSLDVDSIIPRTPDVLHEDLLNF

[8] = biological target: T3, Epstein-Barr nuclear antigen 1 (Epstein-Barr virus (strain B95-8) (HHV-4) (Human herpesvirus 4), UniProt P03211); assay: EBNA-1 inhibitors, dose response, biochemical, fluorescence polarization, 1536-well (AID 2381); design: species or system human gammaherpesvirus 4;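 also: fluorescence polarization of a Cy5 DNA probe bound by EBNA-1 protein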
T3 sequence (P03211 whole entry): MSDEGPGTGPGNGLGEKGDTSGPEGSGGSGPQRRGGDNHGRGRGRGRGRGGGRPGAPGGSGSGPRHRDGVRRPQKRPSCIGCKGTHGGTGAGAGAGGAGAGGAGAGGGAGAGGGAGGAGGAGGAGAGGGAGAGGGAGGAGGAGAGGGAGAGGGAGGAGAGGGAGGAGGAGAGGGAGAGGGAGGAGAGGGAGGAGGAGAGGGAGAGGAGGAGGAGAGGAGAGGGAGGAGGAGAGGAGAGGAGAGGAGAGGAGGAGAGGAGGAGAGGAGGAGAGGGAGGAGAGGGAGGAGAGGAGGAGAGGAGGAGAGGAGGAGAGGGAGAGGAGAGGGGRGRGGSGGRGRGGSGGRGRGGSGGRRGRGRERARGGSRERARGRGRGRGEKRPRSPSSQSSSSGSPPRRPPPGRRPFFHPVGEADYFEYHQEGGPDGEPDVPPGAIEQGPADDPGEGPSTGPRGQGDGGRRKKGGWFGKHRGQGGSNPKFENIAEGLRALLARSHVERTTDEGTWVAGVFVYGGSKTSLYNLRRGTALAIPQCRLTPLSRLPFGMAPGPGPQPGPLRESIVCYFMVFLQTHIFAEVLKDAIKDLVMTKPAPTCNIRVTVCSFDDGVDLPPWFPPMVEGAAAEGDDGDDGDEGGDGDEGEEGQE

[9] = biological target: T4, Calpain-2 catalytic subunit (Sus scrofa, UniProt P43367); assay: pig calpain II inhibitor potency, dose response, biochemical, fluorogenic peptide substrate (AID 1420); type: functional
T4 sequence (P43367 whole entry): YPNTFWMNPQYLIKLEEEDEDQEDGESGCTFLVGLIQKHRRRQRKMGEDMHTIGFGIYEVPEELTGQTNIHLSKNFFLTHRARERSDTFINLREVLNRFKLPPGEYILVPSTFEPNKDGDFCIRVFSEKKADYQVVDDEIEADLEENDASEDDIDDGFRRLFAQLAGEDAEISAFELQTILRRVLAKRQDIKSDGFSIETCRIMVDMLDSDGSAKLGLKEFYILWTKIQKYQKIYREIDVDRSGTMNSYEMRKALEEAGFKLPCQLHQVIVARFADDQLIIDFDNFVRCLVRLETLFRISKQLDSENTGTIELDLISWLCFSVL

[10] = biological target: T5, Small ubiquitin-related modifier 1 (Homo sapiens, UniProt P63165); assay: inhibitors of SUMO1 peptide binding, dose response, biochemical, fluorescence polarization, uHTS hits (AID 624382); type: functional; conditions: read-out: IC50_Mean
T5 sequence (P63165 whole entry): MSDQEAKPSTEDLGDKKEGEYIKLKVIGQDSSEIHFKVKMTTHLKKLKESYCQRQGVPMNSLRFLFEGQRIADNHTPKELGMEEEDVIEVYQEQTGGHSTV

[11] = biological target: T5, Small ubiquitin-related modifier 1; assay: inhibitors of SUMO1 partner interactions, dose response, biochemical, FRET (AID 624383); type: functional; conditions: read-out: IC50_Mean
[12] = biological target: T6, DNA repair and recombination protein RAD54-like (Homo sapiens, UniProt Q92698); assay: inhibitors of human RAD54 branch migration, confirmation, biochemical, fluorescence, cherry-picked samples, dose series (AID 651657); type: functional
T6 sequence (Q92698 whole entry): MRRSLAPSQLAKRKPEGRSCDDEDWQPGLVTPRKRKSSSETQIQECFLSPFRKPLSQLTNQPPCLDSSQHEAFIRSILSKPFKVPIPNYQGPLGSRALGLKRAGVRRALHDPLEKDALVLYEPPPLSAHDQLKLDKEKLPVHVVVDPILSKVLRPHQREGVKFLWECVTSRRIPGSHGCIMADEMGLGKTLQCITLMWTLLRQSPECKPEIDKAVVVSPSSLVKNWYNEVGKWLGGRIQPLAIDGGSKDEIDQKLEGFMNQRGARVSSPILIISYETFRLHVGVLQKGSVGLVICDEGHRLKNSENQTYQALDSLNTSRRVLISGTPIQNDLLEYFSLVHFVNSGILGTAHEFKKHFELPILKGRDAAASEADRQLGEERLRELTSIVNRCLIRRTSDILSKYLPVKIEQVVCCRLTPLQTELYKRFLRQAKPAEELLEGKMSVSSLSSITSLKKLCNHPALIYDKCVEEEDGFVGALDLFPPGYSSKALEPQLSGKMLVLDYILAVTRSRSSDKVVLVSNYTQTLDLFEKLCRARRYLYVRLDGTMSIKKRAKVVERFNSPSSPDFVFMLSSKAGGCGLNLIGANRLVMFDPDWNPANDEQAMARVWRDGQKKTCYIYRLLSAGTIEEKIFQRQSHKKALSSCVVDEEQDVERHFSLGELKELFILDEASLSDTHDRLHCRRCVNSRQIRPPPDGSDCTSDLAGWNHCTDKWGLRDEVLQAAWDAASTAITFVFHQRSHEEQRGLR

Sequence of Disintegrin and metalloproteinase domain-containing protein 17 (P78536 whole entry, the tested form may be a part): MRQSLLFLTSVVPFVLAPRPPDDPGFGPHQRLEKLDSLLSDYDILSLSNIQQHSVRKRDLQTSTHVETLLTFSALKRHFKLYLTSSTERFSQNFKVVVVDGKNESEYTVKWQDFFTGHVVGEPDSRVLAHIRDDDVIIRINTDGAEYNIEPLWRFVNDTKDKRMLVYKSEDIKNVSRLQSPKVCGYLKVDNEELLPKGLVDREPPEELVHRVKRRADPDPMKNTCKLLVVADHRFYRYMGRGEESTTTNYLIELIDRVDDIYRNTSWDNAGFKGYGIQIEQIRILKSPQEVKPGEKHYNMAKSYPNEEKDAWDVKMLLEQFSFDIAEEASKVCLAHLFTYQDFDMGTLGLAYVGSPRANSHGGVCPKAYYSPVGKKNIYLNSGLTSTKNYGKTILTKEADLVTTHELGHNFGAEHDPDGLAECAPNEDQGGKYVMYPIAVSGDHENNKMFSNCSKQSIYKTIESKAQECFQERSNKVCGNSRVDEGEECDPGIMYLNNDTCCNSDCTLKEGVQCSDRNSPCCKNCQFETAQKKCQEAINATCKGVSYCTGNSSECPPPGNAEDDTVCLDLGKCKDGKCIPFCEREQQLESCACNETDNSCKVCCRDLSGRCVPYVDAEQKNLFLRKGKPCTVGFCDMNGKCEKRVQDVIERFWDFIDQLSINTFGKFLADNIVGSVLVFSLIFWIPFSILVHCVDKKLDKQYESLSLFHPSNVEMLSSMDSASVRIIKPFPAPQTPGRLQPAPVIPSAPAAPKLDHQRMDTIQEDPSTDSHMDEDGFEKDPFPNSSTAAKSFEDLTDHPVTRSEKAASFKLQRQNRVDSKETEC

Question: For `COc1ccc2c(c1)c(CC(=O)Nc1ccc(C(C)=O)cc1)c(C)n2C(=O)c1ccc(Cl)cc1`, which IC50 [1] is on record?
Answer: > 69.5 µM (inactive)

Question: What about the IC50 [2] of the same compound?
Answer: > 69.5 µM (inactive)

Question: Which AC50 [3] does the source give for `Cc1[nH]c2ccc(O)cc2c1CCN` here?
Answer: 4.06 µM (active)

Question: Which CC50 [4] does the source give for `COc1ccc(-c2c/c(=N\c3ccc(C)cc3)c3ccccc3o2)cc1` here?
Answer: > 40 µM (active)

Question: What does the source list for `COc1ccc2c3c([nH]c2c1)[C@H](CO)N(CC1CC1)CC31CCN(S(=O)(=O)c2cccc(F)c2)CC1`?
Answer: AC50 [5]: > 39 µM (inactive); AC50 [6]: 4 µM (active)

Question: For `CC(=O)Nc1ccc(NC(=O)C(C)OC(=O)c2oc3ccccc3c2C)cc1` (configuration not stated), which IC50 [7] is on record?
Answer: > 111 µM (not active)

Question: And the IC50 [8]?
Answer: 9.16 µM (active)

Question: With `O=C(Nc1ccc(Nc2ccncc2)cc1)c1ccc(Nc2ccnc3ccc([N+](=O)[O-])cc23)cc1` as the compound, how does the IC50 [9] read?
Answer: 3.36 µM (not active)

Question: And the IC50 [10]?
Answer: > 66.6 µM (inactive)

Question: What about the IC50 [11] of the same compound?
Answer: 0.326 µM (active)

Question: What about the AC50 [12] of the same compound?
Answer: 100 µM (inactive)
